Earlier results on 1 molecule are cited in patent publication US9259405B2, “Method of treating functional somatic syndromes with combination of famciclovir and diclofenac” (INNOVATIVE MED CONCEPTS, LLC, priority 2012, dated 2016).

The data set relates to fibromyalgia patients. The settings on record: J. Rheumatology (2004) 31, 783-784.

With `CC(C)[C@H](N)C(=O)OCCOCn1cnc2c(=O)[nH]c(N)nc21` [valacyclovir], the “treatment of fibromyalgia patients” value is “not successful”.
